This is an account of results in patent publication US20100016172A1, “Nucleic acid binding assay materials and methods” (priority 2007, published 2010).

For series [1], the system named is Consensus hairpin DNA. As to the kind of experiment: Piper electrophoretic mobility shift assay. The format is binding. The following applies: 5 μM of PIPER. As to the method: (§1) The dotted line represents residues that are disordered in the crystal structure. The Exd residue R2C, is the unstructured amino acid to which the Cy3 dye is attached. […] The G-rich DNA in the absence of Exd has a band (bottom arrow), which is higher than the Consensus DNA shift with Exd and polyamide.
(§2) Piper Electrophoretic Mobility Shift Assay (FIG. 6D). The G-rich and Consensus hairpin DNA (same DNA as used in Hairpin Induction for EMSA) were incubated with increasing PIPER (Humphrey, W., Dalke, A. & Schulten, K. (1996) J. Mol. Graphics 14, 33-38) concentrations. PIPER final concentrations were […]. The gels were run and processed as above using an 8% acrylamide/3% glycerol gel with 0.5×TBE.
Background: A gel shift assay detects complexes by their altered migration in electrophoresis.

In series [2] the test system is G-rich hairpin DNA. As to the kind of experiment: Piper electrophoretic mobility shift assay. The format is binding. The following applies: 5 μM of PIPER. Here is the method:
as §1, §2

For series [3], the system named is DNA hairpin target array. As to the kind of experiment: CSI array binding assay of Cy3-labeled Exd alone or with polyamide-peptide conjugates. The following applies: for Motifs emerging from polyamide-Exd CSI data: in addition to G-stretches, Exd 20 nM, polyamide 50 nM. Here is the method: Protein Binding: The microarrays were washed with 150 mM K-glutamate, 50 mM HEPES pH 7.5, 5% glycerol (reaction buffer), for 5 minutes. […] This solution was added to the hybridization chamber and incubated for 30 minutes. Subsequently, the microarrays were washed with reaction buffer and scanned.
To determine the sequence specificity of Exd, we labeled it with Cy3 at a unique cysteine residue on an unstructured portion of the protein (FIG. 6) (Passner, J. M., Ryoo, H. D., Shen, L., Mann, R. S. & Aggarwal, A. K. (1999) Nature 397, 714-719).
Array design for Hox/Exd Cooperative Binding Assay. The duplex DNA sequences are designed as self-complementary palindromes interrupted at the center by a TCCT sequence to facilitate the formation of DNA hairpins (FIG. 7). The 34 residue oligonucleotide is synthesized directly on the glass surface using a maskless array synthesizer (Singh-Gasson, S., Green, R. D., Yeu, Y., Nelson, C., Blattner, F., Sussman, M. R., Cerrina, F. (1999) Nat. Biotechnol. 17, 974-978) that can readily create up to 786,000 spatially resolved features. The unimolecular construction of duplex DNA allows the array to be reused several times without appreciable loss of information. After inducing hairpin formation, we find that greater than 95% of the oligonucleotides in the array form duplexes. In our hairpin design, we added three constant base pairs on either side of the 8 base pairs that were permuted (N′-8).
PA2 and PA3 (ImImPy*Py-γ-ImPyPyPy-β-Dp) are designed to target the sequence 5′-WGWCCW-3′. […] PA2 and PA3 differ solely by a single methylene in the linker connecting the Exd binding peptide to the polyamide (FIG. 8A) (Hauschild, K. E., Metzler, R. E., Arndt, H. D., Moretti, R., Raffaelle, M., Dervan, P. B., Ansari, A. Z. (2005) Proc. Natl. Acad. Sci. U.S.A. 102, 5008-5013). Since these polyamides are not fluorescently labeled, we detect cognate sites bound cooperatively by synthetic Hox mimics and Exd, as well as sites bound by Exd alone.
The raw array data for the above experiments were treated as described in Example 2. […] The Exd binding motif is 5′-NGAN-3′, which is consistent with the structural and genetic studies of Hox-Exd cognate sites (White, R. A., Aspland, S. E., Brookman, J. J., Clayton, L. & Sproat, G. (2000) Mech. Dev. 91, 217-226). In other words, the 5′-GA-3′ dinucleotide is the only required sequence determinant for Exd binding to DNA. Remarkably, the array identified the differences in the arrangement of polyamide and Exd binding sites due to ˜1.25 Å difference in the linker length between PA2 and PA3 (FIG. 8C). The other important result that emerges is that cooperative ternary assembly with Exd stabilizes binding of synthetic Hox mimics to truncated sites (5′-WGWC-3′). This is often seen in nature, where cooperative assembly of transcription factors utilizes sub-optimal binding sites to ensure that only a higher order complex can efficiently bind to a regulatory element (Thanos, D. & Maniatis, T. (1996) Methods Enzymol. 274, 162-173; Ptashne, M. & Gann, A. Genes and Signals. (2002) CSHL Press, New York).

The test system of series [4] is 8-position sequence variation DNA hairpin target array. As to the kind of experiment: CSI array binding assay of PA1 (Cy3 fluorescence intensity). From the text: Hairpin Target CSI Microarray. Each hairpin target was composed of a central permuted 8 base pair region with X^1 with a three base pair CGC sequence anchor region flanking either end, with a complementary sequence on X^2. A fluorescently tagged nucleic acid binding assay molecule was applied to the microarray to generate the nucleic acid binding profile for that assay molecule. Analysis of the array signal intensity gives rise to a reference grid showing the binding intensity output for the array. High intensity features indicate tight binding of the assay molecule to that specific target sequence.
Binding Assay: Microarray slides were immersed in 1×PBS (Phosphate Buffered Saline) and placed in a 90° C. water bath for 30 minutes to induce hairpin formation of the oligonucleotides. Slides were then transferred to a tube of non-stringent wash buffer (Saline-Sodium Phosphate-EDTA Buffer, 0.01% v/v Tween-20) and scanned to check for low background (<200 intensity). Microarrays were scanned using a ScanArray 5000 and the image files extracted with GenePix Pro version 3.0.
Polyamide binding: Microarrays prepared as above were placed in the microarray hybridization chamber and washed twice with non-stringent wash buffer. Polyamide was diluted to 5 nM in Hyb buffer (100 mM MES, 1 M NaCl, 20 mM EDTA, 0.01% v/v Tween-20). Polyamide (5 nM) was then added to the hybridization chamber and incubated at room temperature overnight (16 hours). Finally, the microarrays were washed twice with non-stringent wash buffer and scanned.
The array-to-array variability was very low with an average correlation coefficient of 0.88 (FIG. 4A). […] The duplicate features within an array and replicate features between arrays were averaged together to give finalized intensities. These averaged intensities were then converted into Z-scores [z=signal−meant/standard deviation] to reflect the signal-to-noise ratio.
Data Processing: For each replicate, global mean normalization was used to ensure the mean intensity of each microarray was the same. Local mean normalization (Colantuoni, C., Henry, G., Zeger, S. & Pevsner, J. (2002) Bioinformatics 18, 1540-1541) was then used to ensure the intensity was evenly distributed throughout each sector of the microarray surface. Outliers between replicate features were detected using the Q-test at 90% confidence and filtered out. The replicates were then quantile normalized (Bolstad, B. M., Irizarry, R. A., Astrand, M. & Speed, T. P. (2003) Bioinformatics 19, 185-193) in order to account for any possible non-linearity between arrays. Duplicate features were then averaged together. The median of the averaged features was subtracted to account for background.
Z-scores were calculated as |signal−median|/standard deviation. Due to the right-handed tail effect, standard deviation of the background signal was based upon the standard deviation from the median of all signals less than the median. The relationship of Z-score to P-value can be found in Table 1, below. Motifs were then found by running several motif finding algorithms (Bailey, T. L. & Elkan, C. (1994) Proc. of the 2nd Intl. Conference on Intelligent Systems for Mol. Biol., AAAI Press, Menlo Park, Calif., 28-36; Hughes, J. D., Estep, P. W., Tavazoie, S. & Church, G. M. (2000) J. Mol. Biol. 296, 1205-1214; Liu, X. S., Brutlag, D. L. & Liu, J. S. (2002) Nat. Biotechnol. 20, 835-839) on sequences in the highest Z-score bin. Logos (Schneider, T. D. & Stephens, R. M. (1990) Nucl. Acids Res. 18, 6097-6100) of each motif were then created by using sequences from the highest Z-score bin that contained the motif.

Series [5] concerns DNA cognate sites (sequences used in the footprints). Particulars: footprinting, cited from earlier work.
In series [6] the target is T1, Extradenticle (Exd) homeodomain (Drosophila melanogaster, UniProt P40427 SEQ:1-63).
T1 sequence: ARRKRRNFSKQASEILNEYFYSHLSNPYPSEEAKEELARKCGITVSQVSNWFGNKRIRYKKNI
As to the kind of experiment: EMSA; 100 nM Exd; band completely shifted; polyamide has no effect; K-glutamate 150 mM, HEPES pH 7.5. The following applies: tags: none stated for EMSA; label: 32P; hairpin design; likely G-quadruplex. As to the method: Electrophoretic Mobility Shift Assays: 40mer DNA sequences labeled with ³²P (as per standard methods) were used in all reactions. Reactions were performed in a buffer composed of 150 mM Potassium Glutamate, 50 mM HEPES pH=7.5, 2 mM DTT, 100 ng/μL of BSA, 10% DMSO, and 10% glycerol. For the binding tests, polyamide-peptide conjugates (50 nM final concentration) and ³²P-DNA were incubated together for 30 minutes at 4° C. Exd was then added to bring the reaction volume to 20 μL. Exd final concentrations were 0.033, 0.1, 0.33, 1, 3.3, 10, 33, and 100 nM. These reactions were incubated at 4° C. for 1 hour and then 15 μL was loaded onto a pre-run 10% acrylamide/3% glycerol gel (1×TBE).
(§3) Hairpin Induction for Electrophoretic Mobility Shift Assay (Supplementary Figure S4B). Hairpin DNA was formed by heating synthesized ssDNA to 95° C. for 5 minutes and then rapidly cooling them on ice. The 34mer DNA […] were then labeled with ³²P (as per standard methods). For the hairpin electrophoretic mobility shift assays the concentrations of polyamide used were 50 nM, and Exd was present at a concentration of 100 nM. The reactions were performed in the above buffer and the gels were then run as before with the following exceptions: the gels were 8% acrylamide/3% glycerol gel with 0.5×TBE.

Series [7] has as its system G-rich hairpin DNA. The series is described as follows: Hairpin electrophoretic mobility shift assay with Exd and polyamide. Format: binding. The following applies: upon addition of Exd (100 nM). As to the method: as §1
as §3, with “^32P” for “³²P”

Read-outs that look alike come from different tables or passages of the source.

For the molecule `O=C1c2ccc3c4ccc5c6c(ccc(c7ccc(c2c37)C(=O)N1CCN1CCCCC1)c64)C(=O)N(CCN1CCCCC1)C5=O` [PIPER, N,N-Bis[2-(1-piperidino)ethyl]-3,4,9,10-perylenetetracarboxylic diimide], the “Aggregation of DNA (immobility from the well)” value is listed as “does not” in series [1] and “significant aggregation” in series [2].

As to ImImPy*Py-γ-ImPyPyPy-β-Dp [PA2], the “Motifs emerging from polyamide-Exd CSI data” value in series [3] is listed as “three clear motifs”.

Take ImImPy*Py-γ-ImPyPyPy-β-Dp [PA3]: the “Motifs emerging from polyamide-Exd CSI data” value in series [3] is “only two of those motifs”.

With ImPy*PyPy-γ-ImPyPyPy-β-Dp [PA1], the Intensity amounted to 19715 in series [4] (Data Point A, average of all features containing ATGTACAT); 10952 in series [4] (Data Point B, average of all features containing AGTACT); 3035.5 in series [4] (Data Point C, average of all features containing ATCTACAT); 2073.25 in series [4] (Data Point D, average of all features containing ATATACAT); 1426.5 in series [4] (Data Point E, average of all features containing ATGTATTT). The “Intensity relative to other permutations of the consensus sequence” value in series [4] (all sequences containing 5′-WWGATCWW-3′) is listed as “significantly lower intensities”. The “Effect of substitution on binding” value in series [4] (double substitution at positions 3 and 6 to W (A/T stretch)) is recorded as “retains its ability to bind PA1”; in series [4] (replacing one of the S residues at positions 6 (or 3′) with a W) it was “significantly attenuates, but does not abolish binding”; in series [4] (substituting an S (G or C) at position 8), “only subtly decreases binding”; in series [4] (substituting any other position that prefers a W with an S residue) it was “nearly abolishes binding”. Moreover, the Ka in series [5] (Data Point A, sequence ATGTACAT) was 70 10^9 M^−1; in series [5] (Data Point B, sequence AGTACT), 37 10^9 M^−1; in series [5] (Data Point C, sequence ATCTACAT) it was 3.2 10^9 M^−1; in series [5] (Data Point D, sequence ATATACAT), 2.8 10^9 M^−1; in series [5] (Data Point E, sequence ATGTATTT) it was 0.41 10^9 M^−1.

For the molecule CGCCCCCCCCCCGCTCCTGCGGGGGGGGGGCGTTTT (structured_DNA) [G-rich hairpin DNA], the binding result in series [6] is “binds”.

B1: Exd: transcription factor essential in Drosophila development; used Cy3-labeled (Exd R2C, residues 1-88) on the array (protein, UniProt P40427 1-88, looked up, fragment)
chain: MEDPNRMLAHTGGMMAPQGYGLSGQDDGQNAGSENEVRKQKDIGEILQQIMSISEQSLDEAQARKHTLNCHRMKPALFSVLCEIKEKT
modifications: Cy3 label
notes: transcription factor essential in Drosophila development; used Cy3-labeled (Exd R2C, residues 1-88) on the array
Consider B1, for which, in series [3] (Cy3-labeled Exd with PA2 or PA3), the Exd binding motif is on record as 5′-NGAN-3′. In addition, the Sequence preference result in series [3] (Exd alone) is “unexpected preference for stretches of consecutive G-residues”. Moreover, the Sequence-specific binding entry in series [3] (Exd alone, 0.2-200 nM) was “little sequence-specific binding”. In addition, the “Band shift of G-rich DNA” value in series [7] is recorded as “completely shifted”.
